# Patent US10201523B2, “Use of wilforlide A for overcoming chemotherapy resistance” (WESTERN UNIVERSITY OF HEALTH SCIENCES, priority 2013, dated 2019)
# Where “and” joins values, the source holds several entries; their conditions need not be identical. Equal values may be shown once.
# Legend:
# Bt474-TxR = experiment: SRB cell viability assay, lapatinib with/without wilforlide A pretreatment; type: cell-based; conditions: 72 h
# SkBr3-TxR = experiment: as above; type: cell-based; conditions: SkBr3-TxR; for A at 565 nm: background = 0.051
# [1] = Lapatinib 6.7 μM, pretreated with 25 μg/ml wilforlide A for 2 h, Table 26
# [2] = Lapatinib 20 μM, no wilforlide A pretreatment, Table 25
# [3] = Lapatinib 20 μM, no wilforlide A pretreatment, Table 27
# [4] = Lapatinib 20 μM, pretreated with 25 μg/ml wilforlide A for 2 h, Table 26
# [5] = no wilforlide A pre-Tx, lapatinib 0.01 μM 72 h
# [6] = no wilforlide A pre-Tx, lapatinib 0.2 μM 72 h
# [7] = no wilforlide A pre-Tx, lapatinib 0.67 μM 72 h
# [8] = no wilforlide A pre-Tx, lapatinib 2.0 μM 72 h
# [9] = no wilforlide A pre-Tx, lapatinib 6.7 μM 72 h
# [10] = no wilforlide A pre-Tx, lapatinib 20 μM 72 h
# [11] = wilforlide A 2.5 μg/ml pre-Tx, lapatinib 0.01 μM 72 h
# [12] = wilforlide A 2.5 μg/ml pre-Tx, lapatinib 0.067 μM 72 h
# [13] = wilforlide A 2.5 μg/ml pre-Tx, lapatinib 0.2 μM 72 h
# [14] = wilforlide A 2.5 μg/ml pre-Tx, lapatinib 0.67 μM 72 h
# [15] = wilforlide A 2.5 μg/ml pre-Tx, lapatinib 2.0 μM 72 h
# [16] = wilforlide A 2.5 μg/ml pre-Tx, lapatinib 6.7 μM 72 h
smiles,measurement,setting,value
CS(=O)(=O)CCNCc1ccc(-c2ccc3ncnc(Nc4ccc(OCc5cccc(F)c5)c(Cl)c4)c3c2)o1 [lapatinib],viability at 6.7 µM,"Bt474-TxR; Lapatinib 6.7 μM, no wilforlide A pretreatment, Table 27",68%
same,A at 565 nm,"Bt474-TxR; Lapatinib 6.7 μM, no wilforlide A pretreatment, Table 27, background = 0.047",0.866 and 0.798 and 0.722
same,mean A,Bt474-TxR; [1],0.729
same,viability at 6.7 µM,Bt474-TxR; [1],63.5%
same,A at 565 nm,"Bt474-TxR; Lapatinib 6.7 μM, pretreated with 25 μg/ml wilforlide A for 2 h, Table 26, background = 0.047",0.663 and 0.737 and 0.787
same,mean A,Bt474-TxR; [2],0.876
same,viability at 20 µM,Bt474-TxR; [2],70.2%
same,A at 565 nm,"Bt474-TxR; Lapatinib 20 μM, no wilforlide A pretreatment, Table 25, background = 0.045",0.911 and 0.914 and 0.803
same,mean A,Bt474-TxR; [3],0.746
same,viability at 20 µM,Bt474-TxR; [3],63.8%
same,A at 565 nm,"Bt474-TxR; Lapatinib 20 μM, no wilforlide A pretreatment, Table 27, background = 0.047",0.807 and 0.697 and 0.735
same,mean A,Bt474-TxR; [4],0.587
same,viability at 20 µM,Bt474-TxR; [4],51.2%
same,A at 565 nm,"Bt474-TxR; Lapatinib 20 μM, pretreated with 25 μg/ml wilforlide A for 2 h, Table 26, background = 0.047",0.530 and 0.655 and 0.577
same,viability at 0.001 µM,"SkBr3-TxR; 72 h, no wilforlide A pre-Tx, lapatinib 0.001 μM 72 h",100%
same,viability at 0.01 µM,"SkBr3-TxR; 72 h, no wilforlide A pre-Tx, lapatinib 0.01 μM 72 h",101%
same,viability at 0.067 µM,"SkBr3-TxR; 72 h, no wilforlide A pre-Tx, lapatinib 0.067 μM 72 h",96.6%
same,viability at 0.2 µM,"SkBr3-TxR; 72 h, no wilforlide A pre-Tx, lapatinib 0.2 μM 72 h",90%
same,viability at 0.67 µM,"SkBr3-TxR; 72 h, no wilforlide A pre-Tx, lapatinib 0.67 μM 72 h",85.6%
same,viability at 2 µM,"SkBr3-TxR; 72 h, no wilforlide A pre-Tx, lapatinib 2.0 μM 72 h",73.5%
same,viability at 6.7 µM,"SkBr3-TxR; 72 h, no wilforlide A pre-Tx, lapatinib 6.7 μM 72 h",61.6%
same,viability at 20 µM,"SkBr3-TxR; 72 h, no wilforlide A pre-Tx, lapatinib 20 μM 72 h",42.6%
same,viability at 0.001 µM,"SkBr3-TxR; 72 h, wilforlide A 2.5 μg/ml pre-Tx, lapatinib 0.001 μM 72 h",100%
same,viability at 0.01 µM,"SkBr3-TxR; 72 h, wilforlide A 2.5 μg/ml pre-Tx, lapatinib 0.01 μM 72 h",89%
same,viability at 0.067 µM,"SkBr3-TxR; 72 h, wilforlide A 2.5 μg/ml pre-Tx, lapatinib 0.067 μM 72 h",77.2%
same,viability at 0.2 µM,"SkBr3-TxR; 72 h, wilforlide A 2.5 μg/ml pre-Tx, lapatinib 0.2 μM 72 h",69.1%
same,viability at 0.67 µM,"SkBr3-TxR; 72 h, wilforlide A 2.5 μg/ml pre-Tx, lapatinib 0.67 μM 72 h",59.5%
same,viability at 6.7 µM,"SkBr3-TxR; 72 h, wilforlide A 2.5 μg/ml pre-Tx, lapatinib 6.7 μM 72 h",40.7%
same,viability at 20 µM,"SkBr3-TxR; 72 h, wilforlide A 2.5 μg/ml pre-Tx, lapatinib 20 μM 72 h",31.1%
same,mean A,"SkBr3-TxR; no wilforlide A pre-Tx, lapatinib 0.001 μM 72 h",2.302
same,mean A,SkBr3-TxR; [5],2.322
same,A at 565 nm,SkBr3-TxR; [5],2.458
same,mean A,"SkBr3-TxR; no wilforlide A pre-Tx, lapatinib 0.067 μM 72 h",2.222
same,mean A,SkBr3-TxR; [6],2.071
same,A at 565 nm,SkBr3-TxR; [6],1.945
same,mean A,SkBr3-TxR; [7],1.970
same,A at 565 nm,SkBr3-TxR; [7],1.871 and 1.990 and 2.048
same,mean A,SkBr3-TxR; [8],1.692
same,A at 565 nm,SkBr3-TxR; [8],1.609 and 1.759 and 1.708
same,mean A,SkBr3-TxR; [9],1.418
same,A at 565 nm,SkBr3-TxR; [9],1.426 and 1.445 and 1.384
same,mean A,SkBr3-TxR; [10],0.980
same,A at 565 nm,SkBr3-TxR; [10],0.958 and 1.024 and 0.957
same,mean A,"SkBr3-TxR; wilforlide A 2.5 μg/ml pre-Tx, lapatinib 0.001 μM 72 h",2.265
same,mean A,SkBr3-TxR; [11],2.016
same,A at 565 nm,SkBr3-TxR; [11],1.817 and 1.976
same,mean A,SkBr3-TxR; [12],1.748
same,A at 565 nm,SkBr3-TxR; [12],1.344 and 1.909 and 1.992
same,mean A,SkBr3-TxR; [13],1.564
same,A at 565 nm,SkBr3-TxR; [13],1.299 and 1.540 and 1.854
same,mean A,SkBr3-TxR; [14],1.347
same,A at 565 nm,SkBr3-TxR; [14],1.127 and 1.398 and 1.517
same,mean A,SkBr3-TxR; [15],1.140
same,A at 565 nm,SkBr3-TxR; [15],0.987 and 1.095 and 1.339
same,mean A,SkBr3-TxR; [16],0.922
same,A at 565 nm,SkBr3-TxR; [16],0.794 and 0.932 and 1.040
same,A at 565 nm,"SkBr3-TxR; wilforlide A 2.5 μg/ml pre-Tx, lapatinib 20 μM 72 h",0.731 and 0.673 and 0.706
same,IC50,"SkBr3-TxR; wilforlide A 2.5 μg/ml pre-Tx, read-out: Drug IC50 after wilforlide A pre-Tx",886 nM
same,CE,"SkBr3-TxR; chemosensitization effect, wilforlide A 2.5 μg/ml pre-Tx",13
